Laboratory results published in ChEMBL document CHEMBL5625228, “Design, synthesis, and bioactivity evaluation of novel amide/sulfonamide derivatives as potential anti-inflammatory agents against acute lung injury and ulcerative colitis” (Eur J Med Chem, 2023).
Active and inactive are the calls of the source. The rule behind the calls is not given here.

Key:
Mus musculus [1] = test: Antiinflammatory activity against LPS-induced acute lung injury C57BL/6 mouse model assessed as suppression of TNF-alpha level in serum at 20 mg/kg, IG preincubated with compound for 30 mins followed by LPS-induction and measured after 6 hrs by ELISA analysis; format: functional, organism-based; settings: time 390.0 min
[2] = Apparent volume of distribution in Sprague-Dawley rat at 10 mg/kg, po measured upto 24 hrs by LC-MS analysis; format: ADME, organism-based; settings: in vivo
J774.A1 [3] = test: Antiinflammatory activity against LPS-induced mouse J774.A1 cells assessed as increase in IkappaB-alpha level at 20 uM incubated for 2 hrs by Western blot analysis; format: functional, cell-based
Mus musculus [4] = test: Antiinflammatory activity against DSS-induced acute colitis C57BL/6 mouse model assessed as reduction in IL-6 level in serum at 5 mg/kg, po pretreated with DSS for 7 days followed by compound addition for every day for 10 days by ELISA analysis; format: functional, organism-based; settings: time 10.0 day
[5] = Oral bioavailability in Sprague-Dawley rat at 10 mg/kg measured upto 24 hrs by LC-MS analysis; format: ADME, organism-based; settings: in vivo
Mus musculus [6] = test: Antiinflammatory activity against LPS-induced acute lung injury C57BL/6 mouse model assessed as suppression of TNF-alpha level in BALF at 20 mg/kg, IG preincubated with compound for 30 mins followed by LPS-induction and measured after 6 hrs by ELISA analysis; format: functional, organism-based; settings: time 390.0 min
Mus musculus [7] = test: Antiinflammatory activity against DSS-induced acute colitis C57BL/6 mouse model assessed as reduction in crypt necrosis in colon at 5 mg/kg, po pretreated with DSS for 7 days followed by compound addition for every day for 10 days by H and E staining based analysis; format: functional, organism-based; settings: time 10.0 day
J774.A1 [8] = test: Antiinflammatory activity against LPS-induced mouse J774.A1 cells assessed as downregulation of p65 level at 20 uM incubated for 2 hrs by Western blot analysis; format: functional, cell-based
Mus musculus [9] = test: Antiinflammatory activity against LPS-induced acute lung injury C57BL/6 mouse model assessed as reduction in protein concentration in BALF at 20 mg/kg, IG preincubated with compound for 30 mins followed by LPS-induction and measured after 6 hrs; format: functional, organism-based; settings: time 390.0 min
[10] = Tmax in Sprague-Dawley rat at 1 mg/kg, iv measured upto 24 hrs by LC-MS analysis; format: ADME, organism-based; settings: in vivo
Mus musculus [11] = test: Antiinflammatory activity against DSS-induced acute colitis C57BL/6 mouse model assessed as reduction in inflammatory infiltration in colon at 5 mg/kg, po pretreated with DSS for 7 days followed by compound addition for every day for 10 days by H and E staining based analysis; format: functional, organism-based; settings: time 10.0 day
Mus musculus [12] = test: Antiinflammatory activity against DSS-induced acute colitis C57BL/6 mouse model assessed as reduction in mucosal damage in colon at 5 mg/kg, po pretreated with DSS for 7 days followed by compound addition for every day for 10 days by H and E staining based analysis; format: functional, organism-based; settings: time 10.0 day
Mus musculus [13] = test: Antiinflammatory activity against LPS-induced acute lung injury C57BL/6 mouse model assessed as alveolar septa thickness in lung at 20 mg/kg, IG preincubated with compound for 30 mins followed by LPS-induction and measured after 6 hrs by H and E staining based analysis; format: functional, organism-based; settings: time 390.0 min
Mus musculus [14] = test: Antiinflammatory activity against DSS-induced acute colitis C57BL/6 mouse model assessed as reduction in splenomegaly at 5 mg/kg, po pretreated with DSS for 7 days followed by compound addition for every day for 10 days; format: functional, organism-based; settings: time 10.0 day
J774.A1 [15] = test: Antiinflammatory activity against mouse J774.A1 cells assessed as inhibition of LPS-induced TNF-alpha production pretreated with compound for 30 mins followed by LPS induction and measured after 24 hrs by ELISA analysis; format: functional; settings: time 1470 min; 24.5 h
J774.A1 [16] = test: Antiinflammatory activity against LPS-induced mouse J774.A1 cells assessed as downregulation of TNF-alpha mRNA level preincubated with compound for 30 mins followed by LPS-induction and measured after 6 hrs by qPCR analysis; format: functional, cell-based; settings: time 390.0 min
[17] = Cmax in Sprague-Dawley rat at 1 mg/kg, iv measured upto 24 hrs by LC-MS analysis; format: ADME, organism-based; settings: in vivo
[18] = MRT (0 to t) in Sprague-Dawley rat at 1 mg/kg, iv measured upto 24 hrs by LC-MS analysis; format: ADME, organism-based; settings: in vivo
[19] = AUC (0 to t) in Sprague-Dawley rat at 1 mg/kg, iv measured upto 24 hrs by LC-MS analysis; format: ADME, organism-based; settings: in vivo
J774.A1 [20] = test: Antiinflammatory activity against mouse J774.A1 cells assessed as inhibition of LPS-induced IL-6 production pretreated with compound for 30 mins followed by LPS induction and measured after 24 hrs by ELISA analysis; format: functional; settings: time 1470 min; 24.5 h
[21] = Tmax in Sprague-Dawley rat at 10 mg/kg, po measured upto 24 hrs by LC-MS analysis; format: ADME, organism-based; settings: in vivo
Mus musculus [22] = test: Antiinflammatory activity against LPS-induced acute lung injury C57BL/6 mouse model assessed as decrease in IL-6 mRNA level in lung at 20 mg/kg, IG preincubated with compound for 30 mins followed by LPS-induction and measured after 6 hrs by qPCR analysis; format: functional, organism-based; settings: time 390.0 min
Mus musculus [23] = test: Antiinflammatory activity against LPS-induced acute lung injury C57BL/6 mouse model assessed as suppression of IL-6 level in BALF at 20 mg/kg, IG preincubated with compound for 30 mins followed by LPS-induction and measured after 6 hrs by ELISA analysis; format: functional, organism-based; settings: time 390.0 min
Mus musculus [24] = test: Antiinflammatory activity against LPS-induced acute lung injury C57BL/6 mouse model assessed as lung tissue destruction at 20 mg/kg, IG preincubated with compound for 30 mins followed by LPS-induction and measured after 6 hrs by H and E staining based analysis; format: functional, organism-based; settings: time 390.0 min
Mus musculus [25] = test: Antiinflammatory activity against LPS-induced acute lung injury C57BL/6 mouse model assessed as suppression of IL-6 level in serum at 20 mg/kg, IG preincubated with compound for 30 mins followed by LPS-induction and measured after 6 hrs by ELISA analysis; format: functional, organism-based; settings: time 390.0 min
[26] = Clearance in Sprague-Dawley rat at 1 mg/kg, iv measured upto 24 hrs by LC-MS analysis; format: ADME, organism-based; settings: in vivo
Mus musculus [27] = test: Antiinflammatory activity against DSS-induced acute colitis C57BL/6 mouse model assessed as increase in colon length at 5 mg/kg, po pretreated with DSS for 7 days followed by compound addition for every day for 10 days; format: functional, organism-based; settings: time 10.0 day
[28] = MRT (0 to t) in Sprague-Dawley rat at 10 mg/kg, po measured upto 24 hrs by LC-MS analysis; format: ADME, organism-based; settings: in vivo
[29] = Half life in Sprague-Dawley rat at 1 mg/kg, iv measured upto 24 hrs by LC-MS analysis; format: ADME, organism-based; settings: in vivo
[30] = Clearance in Sprague-Dawley rat at 10 mg/kg, po measured upto 24 hrs by LC-MS analysis; format: ADME, organism-based; settings: in vivo
[31] = Cmax in Sprague-Dawley rat at 10 mg/kg, po measured upto 24 hrs by LC-MS analysis; format: ADME, organism-based; settings: in vivo
J774.A1 [32] = test: Antiinflammatory activity against mouse J774.A1 cells assessed as inhibition of LPS-induced TNF-alpha release preincubated with compound for 30 mins followed by LPS-induction and measured after 24 hrs by ELISA analysis; format: functional, cell-based
Mus musculus [33] = test: Antiinflammatory activity against LPS-induced acute lung injury C57BL/6 mouse model assessed as decrease in TNF-alpha mRNA level in lung at 20 mg/kg, IG preincubated with compound for 30 mins followed by LPS-induction and measured after 6 hrs by qPCR analysis; format: functional, organism-based; settings: time 390.0 min

O=[N+]([O-])c1ccc(N2CCN(c3ccc(S(=O)(=O)NCc4ccccn4)cc3[N+](=O)[O-])CC2)cc1
Activity (Mus musculus [1]): Active | Vz [2]: 80 L/kg | Activity (J774.A1 [3]): Active | Activity (Mus musculus [4]): Active | bioavailability [5]: 10.6% | Activity (Mus musculus [6]): Active | Activity (Mus musculus [7]): Active | Activity (J774.A1 [8]): Active | Activity (Mus musculus [9]): Active | Tmax [10]: 8.4 min | Activity (Mus musculus [11]): Active | Activity (Mus musculus [12]): Active | Activity (Mus musculus [13]): Active | Activity (Mus musculus [14]): Active | inhibition (INH) (J774.A1 [15]): 70.09% | Activity (J774.A1 [16]): Active | Cmax [17]: 1320 ng/mL | MRT last at 24 h [18]: 1.1 h | AUC(0-t) at 24 h [19]: 1110 ng·h/mL | inhibition (INH) (J774.A1 [20]): 85.92% | Tmax [21]: 2.8 h | Activity (Mus musculus [22]): Active | Activity (Mus musculus [23]): Active | Activity (Mus musculus [24]): Active | Activity (Mus musculus [25]): Active | clearance [26]: 15 mL/min/kg | Activity (Mus musculus [27]): Active | MRT last at 24 h [28]: 7.2 h | half-life [29]: 1.8 h | clearance [30]: 150 mL/min/kg | Cmax [31]: 168 ng/mL | IC50 (J774.A1 [32]): 4.34 µM | Activity (Mus musculus [33]): Active
